Target: T1, KCC2 (Homo sapiens, UniProt Q9H2X9)
T1 construct: expressed in transfected cells; host or cells: HEK293 cells electroporated (Maxcyte STX) with the pcDNA3.1 KCC2 plasmid
T1 sequence (Q9H2X9 1-1139): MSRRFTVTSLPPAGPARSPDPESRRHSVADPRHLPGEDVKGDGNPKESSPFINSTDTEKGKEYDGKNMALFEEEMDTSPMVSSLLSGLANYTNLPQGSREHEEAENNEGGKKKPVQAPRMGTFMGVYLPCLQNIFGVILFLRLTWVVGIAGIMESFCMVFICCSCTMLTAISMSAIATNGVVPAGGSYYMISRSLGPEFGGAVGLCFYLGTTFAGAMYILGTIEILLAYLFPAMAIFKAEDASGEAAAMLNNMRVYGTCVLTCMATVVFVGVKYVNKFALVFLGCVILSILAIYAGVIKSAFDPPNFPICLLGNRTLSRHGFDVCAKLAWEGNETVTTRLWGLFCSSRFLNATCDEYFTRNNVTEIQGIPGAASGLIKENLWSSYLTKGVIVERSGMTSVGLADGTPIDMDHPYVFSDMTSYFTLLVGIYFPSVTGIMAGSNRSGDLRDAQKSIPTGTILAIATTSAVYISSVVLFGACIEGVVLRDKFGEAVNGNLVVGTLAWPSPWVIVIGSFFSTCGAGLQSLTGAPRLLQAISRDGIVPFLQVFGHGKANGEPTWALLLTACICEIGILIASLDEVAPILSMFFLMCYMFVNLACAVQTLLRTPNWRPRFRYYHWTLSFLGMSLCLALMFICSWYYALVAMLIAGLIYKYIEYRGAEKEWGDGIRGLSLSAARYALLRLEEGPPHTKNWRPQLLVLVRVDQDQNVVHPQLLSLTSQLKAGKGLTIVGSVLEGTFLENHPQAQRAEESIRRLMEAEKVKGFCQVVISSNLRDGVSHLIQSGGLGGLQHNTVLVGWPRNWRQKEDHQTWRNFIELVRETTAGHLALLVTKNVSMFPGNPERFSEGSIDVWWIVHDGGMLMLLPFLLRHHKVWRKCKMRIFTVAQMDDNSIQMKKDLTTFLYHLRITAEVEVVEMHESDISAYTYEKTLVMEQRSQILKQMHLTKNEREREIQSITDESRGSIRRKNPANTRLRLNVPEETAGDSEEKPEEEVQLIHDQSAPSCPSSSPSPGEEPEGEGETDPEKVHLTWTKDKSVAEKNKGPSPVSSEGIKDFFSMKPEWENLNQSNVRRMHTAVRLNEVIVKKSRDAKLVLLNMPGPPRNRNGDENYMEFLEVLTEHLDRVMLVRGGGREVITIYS
Assay: KCC2 thallium transport FLIPR-based assay (Tl+ influx in HEK293 cells expressing KCC2)
Assay type: cell-based
Conditions: 90 min compound incubation at RT, thallium flux at 120 s used to determine EC50
How it was run: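 Transient electroporation of codon-optimised human KCC2 into HEK293 cells, plated and cultured 48 h before dye loading (1 h, RT). Compounds run as a 12-point 1:2 series from 100 μM top, 90 min RT in buffer containing bumetanide; Tl+ flux read by FLIPR after stimulus addition, 1 s intervals over 120 s, with the 120 s signal used for EC50.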

| Structure (SMILES) | EC50 |
| --- | --- |
| CC(C)N1Cc2c(Nc3ccc(OC4CCCC4)cc3)nc(N3CCO[C@H](C)C3)nc2C1=O [Example 64, 4-{[4-(cyclopentyloxy)phenyl]amino}-2-[(2R)-2-methylmorpholin-4-yl]-6-(propan-2-yl)-5,6-dihydro-7H-pyrrolo[3,4-d]pyrimidin-7-one] | 5.76 µM |
| CCCN(CCC)c1nc(Nc2ccc(C3CCCCC3)cc2)c2c(n1)C(=O)N(C(C)C)C2 [Example 29, 4-[(4-cyclohexylphenyl)amino]-2-(dipropylamino)-6-(propan-2-yl)-5,6-dihydro-7H-pyrrolo[3,4-d]pyrimidin-7-one] | 3.89 µM |
| CC(C)N1Cc2c(Nc3ccc(-c4ccsc4)cc3)nc(N3CCOCC3)nc2C1=O [Example 114, 2-(morpholin-4-yl)-6-(propan-2-yl)-4-{[4-(thiophen-3-yl)phenyl]amino}-5,6-dihydro-7H-pyrrolo[3,4-d]pyrimidin-7-one] | 7.3 µM |
| CC(C)c1ccc(Nc2nc(N3C[C@@H](C)O[C@@H](C)C3)nc3c2CN(C(C)C)C3=O)cc1 [Example 4, 2-[(2R,6S)-2,6-dimethylmorpholin-4-yl]-6-(propan-2-yl)-4-{[4-(propan-2-yl)phenyl]amino}-5,6-dihydro-7H-pyrrolo[3,4-d]pyrimidin-7-one] | 3.76 µM |
| CC(C)N1Cc2c(Nc3ccc(C4CCCCC4)cc3)nc(N3CCOC[C@H]3C(=O)O)nc2C1=O [Example 38, (3S)-4-{4-[(4-cyclohexylphenyl)amino]-7-oxo-6-(propan-2-yl)-6,7-dihydro-5H-pyrrolo[3,4-d]pyrimidin-2-yl}morpholine-3-carboxylic acid] | 9.34 µM |
| CC(C)N1Cc2c(Nc3ccc(C4CCCCC4)cc3)nc(N(C)Cc3cnccn3)nc2C1=O [Example 33, 4-[(4-cyclohexylphenyl)amino]-2-{methyl[(prazin-2-yl)methyl]amino}-6-(propan-2-yl)-5,6-dihydro-7H-pyrrolo[3,4-d]pyrimidin-7-one] | 5.01 µM |
| CC(C)N1Cc2c(Nc3ccc(C4CCCCC4)cc3)nc(N3CCOC(CO)C3)nc2C1=O (stereo not drawn) [Example 31, 4-[(4-cyclohexylphenyl)amino]-2-[2-(hydroxymethyl)morpholin-4-yl]-6-(propan-2-yl)-5,6-dihydro-7H-pyrrolo[3,4-d]pyrimidin-7-one] | 4.81 µM |
| CC(C)N1Cc2c(Nc3ccc(-c4ccc(Cl)c(Cl)c4)cc3)nc(N3CCOCC3)nc2C1=O [Example 85, 4-[(3′,4′-dichloro[1,1′-biphenyl]-4-yl)amino]-2-(morpholin-4-yl)-6-(propan-2-yl)-5,6-dihydro-7H-pyrrolo[3,4-d]pyrimidin-7-one] | 8.41 µM |
| CC(C)c1ccc(Nc2nc(N3CCO[C@@H](C)C3)nc3c2CN(C(C)C)C3=O)cc1 [Example 6, 2-[(2S)-2-methylmorpholin-4-yl]-6-(propan-2-yl)-4-{[4-(propan-2-yl)phenyl]amino}-5,6-dihydro-7H-pyrrolo[3,4-d]pyrimidin-7-one] | 6.82 µM |
| CC(C)N1Cc2c(Nc3ccc(C4CCCCC4)cc3)nc(-c3cncs3)nc2C1=O [Example 49, 4-[(4-cyclohexylphenyl)amino]-6-(propan-2-yl)-2-(1,3-thiazol-5-yl)-5,6-dihydro-7H-pyrrolo[3,4-d]pyrimidin-7-one] | 6.3 µM |
| CC(C)c1ccc(Nc2nc(N3CCOCC3)nc3c2CN(C(C)C)C3=O)cc1 [Example 86, 2-(morpholin-4-yl)-6-(propan-2-yl)-4-{[4-(propan-2-yl)phenyl]amino}-5,6-dihydro-7H-pyrrolo[3,4-d]pyrimidin-7-one] | 5.83 µM |
| CCCc1ccc(Nc2nc(N3CCO[C@H](C)C3)nc3c2CN(C(C)C)C3=O)cc1 [Example 60, 2-[(2R)-2-methylmorpholin-4-yl]-6-(propan-2-yl)-4-[(4-propylphenyl)amino]-5,6-dihydro-7H-pyrrolo[3,4-d]pyrimidin-7-one] | 4.82 µM |

The remaining lines, values ahead:

| EC50 | Structure (SMILES) |
| --- | --- |
| 1.41 µM | CCCCCCCOc1ccc(-c2ccc(Nc3nc(N4CCOC(C5CC5)C4)nc4c3COC4)cc2)cc1 (stereo not drawn) [Example 93] |
| 3 µM | CC(C)c1ccc(Nc2nc(N3CCSC3)nc3c2CN(C(C)C)C3=O)cc1 [Example 3, 6-(propan-2-yl)-4-{[4-(propan-2-yl)phenyl]amino}-2-(1,3-thiazolidin-3-yl)-5,6-dihydro-7H-pyrrolo[3,4-d]pyrimidin-7-one] |
| 3.7 µM | C[C@@H]1CN(c2nc(Nc3ccc(C4CCC4)cc3)c3c(n2)C(=O)N(CCCN(C)C)C3)CCO1 [Example 74, 4-[(4-cyclobulylphenyl)amino]-6-[3-(dimethylamino)propyl]-2-[(2R)-2-methylmorpholin-4-yl]-5,6-dihydro-7H-pyrrolo[3,4-d]pyrimidin-7-one] |
| 2.09 µM | CC(C)N1Cc2c(Nc3ccc(-c4ccccc4)c(F)c3)nc(N3CCOCC3)nc2C1=O [Example 84, 4-[(2-fluoro[1,1′-biphenyl]-4-yl)amino]-2-(morpholin-4-yl)-6-(propan-2-yl)-5,6-dihydro-7H-pyrrolo[3,4-d]pyrimidin-7-one] |
| 1.56 µM | CC(C)N1Cc2c(Nc3ccc(-c4ccc(OCCNC(=O)OC(C)(C)C)cc4)cc3)nc(N3CCOCC3)nc2C1=O [Example 69, tert-Butyl (2-((4′-((6-isopropyl-2-morpholino-7-oxo-6,7-dihydro-5H-pyrrolo[3,4-d]pyrimidin-4-yl)amino)-[1,1′-biphenyl]-4-yl)oxy)ethyl)carbamate] |
| 3.5 µM | COC1CCN(c2nc(Nc3ccc(C4CCCCC4)cc3)c3c(n2)C(=O)N(C(C)C)C3)C1 (stereo not drawn) [Example 26, 4-[(4-cyclohexylphenyl)amino]-2-(3-methoxypyrrolidin-1-yl)-6-(propan-2-yl)-5,6-dihydro-7H-pyrrolo[3,4-d]pyrimidin-7-one] |
| 1.39 µM | CC(C)C1CN(c2nc(Nc3ccc(C4CCCCC4)cc3)c3c(n2)C(=O)N(C(C)C)C3)CCO1 (stereo not drawn) [Example 18, 4-[(4-cyclohexylphenyl)amino]-6-(propan-2-yl)-2-[2-(propan-2-yl)morpholin-4-yl]-5,6-dihydro-7H-pyrrolo[3,4-d]pyrimidin-7-one] |
| 3.08 µM | CC(C)N1Cc2c(Nc3ccc(C4CCCCC4)cc3)nc(C3CCOCC3)nc2C1=O [Example 78, 4-((4-cyclohexylphenyl)amino)-6-isopropyl-2-(tetrahydro-2H-pyran-4-yl)-5,6-dihydro-7H-pyrrolo[3,4-d]pyrimidin-7-one] |
| 1.94 µM | CCN1Cc2c(Nc3ccc(C4CCCCC4)cc3)nc(N3CCO[C@H](C)C3)nc2C1=O [Example 68, 4-[(4-cyclohexylphenyl)amino]-6-ethyl-2-[(2R)-2-methylmorpholin-4-yl]-5,6-dihydro-7H-pyrrolo[3,4-d]pyrimidin-7-one] |
| 0.901 µM | Cc1cc(-c2nc(Nc3ccc(C4CCCCC4)cc3)c3c(n2)C(=O)N(C(C)C)C3)ccn1 [Example 44, 4-[(4-cyclohexylphenyl)amino]-2-(2-methylpyridin-4-yl)-6-(propan-2-yl)-5,6-dihydro-7H-pyrrolo[3,4-d]pyrimidin-7-one] |
| 2.29 µM | CC(C)N1Cc2c(Nc3ccc(-c4ccccc4)c(F)c3)nc(C3=CCOCC3)nc2C1=O [Example 82, 2-(3,6-dihydro-2H-pyran-4-yl)-4-((2-fluoro-[1,1′-biphenyl]-4-yl)amino)-6-isopropyl-5,6-dihydro-7H-pyrrolo[3,4-d]pyrimidin-7-one] |
| 2.73 µM | C[C@@H]1CN(c2nc(Nc3ccc(C4CCCCC4)cc3)c3c(n2)C(=O)N(CCN(C)C)C3)CCO1 [Example 73, 4-[(4-cyclohexylphenyl)amino]-6-[2-(dimethylamino)ethyl]-2-[(2R)-2-methylmorpholin-4-yl]-5,6-dihydro-7H-pyrrolo[3,4-d]pyrimidin-7-one] |

From patent US12617795B2, “Substituted 6,7-dihydro-5H-pyrrolo[3,4-d]pyrimidines, 5,7-dihydrofuro[3,4-d]pyrimidines, and pyrido[2,3-d]pyrimidines as KCC2 modulators” (Astrazeneca AB, priority 2020, dated 2026)
